For data set [1] the following is noted: cited from earlier work.
A further data set relates to HeLa cells. The experiment in a line: Viability dose-response of HeLa cells (FIG. 3). In kind it is cell-based. The note with it: 25 μM DHA.
Data set [2] deals with MJ, HTLV-I positive cutneous T cell leukemia line. The experiment in a line: Trypan blue viability of HTLV-I positive lymphoid cell line (FIG. 5). The data set is classed as cell-based. The note with it: Primate T-lymphotropic virus 1, T-cell; 6.25 μM DHA; MJ cells; read-out: cells killed (viability as % of controls, trypan blue). As to the method:
(§1) One cell line, referred to as MJ, is an HTLV-I positive cutneous T cell leukemia line and the other cell line, referred to Namalwa, is an EBV positive Burkitt's lymphoma B cell line.
(§2) The cell lines were maintained in culture, using RPMI 1640 medium, supplemented with 10% fetal bovine serum and antibiotics. For the assay, 100,000 cells, in volumes of 100 μl medium, were placed in micro-titer wells; an additional 100 μl medium, containing 0 μM, 6.25 μM, 12.5 μM, 25 μM, 50 μM, 100 μM and 200 μM concentrations of DHA, were added. The negative controls contained medium only. The DHA stock (20 mM) was used to dilute the drug in concentrations ranging from 0 to 200 μM. All experiments were performed in triplicate. After incubation at 37° C. and 5% CO2, for various time periods, the cells were counted in a hemocytometer in the presence of trypan blue. Viability was expressed, as % of controls (no drug).

In data set [3] the test system is cervical cancer cell lines (HeLa, SiHa, Caski). The experiment in a line: Viability dose-response of cervical cancer cell lines (FIG. 3). The data set is classed as cell-based. Particulars: 72 h, 25 μM DHA, within 3 days of treatment, read-out: loss of viability.
In data set [4] the test system is Namalwa, EBV positive Burkitt's lymphoma B cell line. The data set is described as follows: Trypan blue viability of EBV positive lymphoid cell line (FIG. 4). The note with it: human gammaherpesvirus 4, B-cell; 6.25 μM DHA; Namalwa cells; read-out: cells killed (viability as % of controls, trypan blue). The data set is classed as cell-based. As to the method:
as §1, §2

The subject of data set [5] is cervical cancer cell lines. The experiment in a line: Morphology of cervical cancer cell lines after artemisinin treatment (phase contrast microscopy, FIG. 2). In kind it is cell-based. Particulars: 25 μM artemisinin, 3 days, vs control solvent.
For data set [6], the system named is normal cervical cells (HCX). The data set is described as follows: Morphology of normal cervical cells after artemisinin treatment (phase contrast microscopy, FIG. 2). In kind it is cell-based. Particulars: 25 μM artemisinin, 3 days, vs control solvent.

`CCO[C@H]1O[C@@H]2O[C@@]3(C)CC[C@H]4[C@H](C)CC[C@@H]([C@H]1C)[C@@]24OO3` [arteether]: the “solubility in water compared with artemisinin” value in data set [1] is “higher solubility in water”.
For the molecule `CO[C@H]1O[C@@H]2O[C@@]3(C)CC[C@H]4[C@H](C)CC[C@@H]([C@H]1C)[C@@]24OO3` [artemether], the “solubility in water compared with artemisinin” value in data set [1] was “higher solubility in water”.
Consider `C[C@H]1[C@@H](OCc2ccc(C(=O)O)cc2)O[C@@H]2O[C@@]3(C)CC[C@H]4[C@H](C)CC[C@@H]1[C@@]24OO3` [artelinic acid], for which the “solubility in water compared with artemisinin” value in data set [1] is recorded as “higher solubility in water”.
The molecule `C[C@H]1[C@@H](O)O[C@@H]2O[C@@]3(C)CC[C@H]4[C@H](C)CC[C@@H]1[C@@]24OO3` [DHA, dihydroartemisinin] displayed a cell death in the data set with HeLa cells of 95%. For the same molecule, in data set [1], the “solubility in water compared with artemisinin” value is “higher solubility in water”. The cytotoxicity at 6.25 µM in data set [2] and in data set [4] was approximately 60% each time. The cytotoxicity at 25 µM in data set [3] stood at 80%.
Turning to `C[C@@H]1CC[C@H]2[C@@H](C)C(=O)O[C@@H]3O[C@@]4(C)CC[C@@H]1[C@]32OO4` [artemisinin], the “change in morphology of cervical cancer cells” value in data set [5] was “rounded up and detached from the tissue culture plate”. The “change in morphology of normal cervical cells (HCX)” value in data set [6] is listed as “little change in morphology”.
`CCCOC(=O)OC1O[C@@H]2O[C@@]3(C)CC[C@H]4[C@H](C)CC[C@@H]([C@H]1C)[C@@]24OO3` (some centres unmarked) [propylcarbonate dihydroartemisinin]: the “solubility in water compared with artemisinin” value in data set [1] is reported as “higher solubility in water”.

Source of the values: patent US12128024B2 (GEORGETOWN UNIVERSITY, priority 2004, dated 2024).
